Tests used:
GALAP (Galium) = test: Preemergence herbicidal evaluation; format: in vivo, Galium aparine; settings: rated 4-5 weeks after treatment
Procedure, shortened: (§1)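 Scores (0–9) reflect visual comparison with control plants for stand, vigor, malformation, size and chlorosis. Compound was applied to the soil after sowing, before emergence, as an aqueous acetone spray (about 0.0156–0.500 kg/ha), and cups were kept in a greenhouse for 4–5 weeks.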

ECHCG (Barnyardgrass) = test: Preemergence herbicidal evaluation; format: in vivo, Echinochloa crus-galli; settings: rated 4-5 weeks after treatment
Procedure, shortened: as §1

[1] = test system: GLXMAW (Soybean, Williams); test: Preemergence herbicidal evaluation; format: in vivo, Glycine max, (L.) Merr. cv Williams; settings: rated 4-5 weeks after treatment
Procedure, shortened: as §1

[2] = test system: IPOHE (Morningglory, Ivyleaf); test: Postemergence herbicidal evaluation; format: in vivo, Ipomoea hederacea; settings: postemergence
Procedure, shortened: (§2)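 Each compound, dispersed in an acetone/water mix (50/50) carrying 0.5% TWEEN 20, is nozzle-sprayed at 40 psi on approximately two-week-old seedlings at about 0.0156–0.500 kg/ha. Plants are assessed 4–5 weeks afterward on a 0–9 scale relative to control; duplicate tests are averaged.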

[3] = test system: CHEAL (Lambsquarters, Common); test: Postemergence herbicidal evaluation; format: in vivo, Chenopodium album; settings: postemergence
Procedure, shortened: as §2

[4] = rate 0.1250 kg/ha, rating scale 0-9
[5] = rate 0.2500 kg/ha, rating scale 0-9

| Compound | Preemergence herbicidal rating GALAP (GALAP (Galium); 0.0156 kg/ha) | Preemergence herbicidal rating GALAP (GALAP (Galium); 0.0313 kg/ha) | Preemergence herbicidal rating GALAP (GALAP (Galium); 0.0625 kg/ha) | Preemergence herbicidal rating ECHCG (ECHCG (Barnyardgrass); 0.0156 kg/ha) | Preemergence herbicidal rating ECHCG (ECHCG (Barnyardgrass); 0.0313 kg/ha) | Preemergence herbicidal rating ECHCG (ECHCG (Barnyardgrass); 0.0625 kg/ha) | Preemergence herbicidal rating GLXMAW ([1]; 0.0156 kg/ha) | Preemergence herbicidal rating GLXMAW ([1]; 0.0313 kg/ha) | Preemergence herbicidal rating GLXMAW ([1]; 0.0625 kg/ha) | herbicidal rating IPOHE ([2]; rate 0.0156 kg/ha) | herbicidal rating IPOHE ([2]; rate 0.0313 kg/ha) | herbicidal rating IPOHE ([2]; rate 0.0625 kg/ha) | herbicidal rating CHEAL ([3]; rate 0.0156 kg/ha) | herbicidal rating CHEAL ([3]; rate 0.0313 kg/ha) | herbicidal rating CHEAL ([3]; rate 0.0625 kg/ha) | other results |
| --- | --- | --- | --- | --- | --- | --- | --- | --- | --- | --- | --- | --- | --- | --- | --- | --- |
| COC(=O)CSCCN1C(=O)CSC1=Nc1cc(-n2c(=O)cc(C(F)(F)F)n(C)c2=O)c(F)cc1Cl [Compound 158, Methyl {{2-{2-{{2-chloro-5-[3,6-dihydro-3-methyl-2,6-dioxo-4-(trifluoromethyl)-1(2H)-pyrimidinyl]-4-fluorophenyl}imino}-4-oxo-3-thiazolidinyl}ethyl}-thio}acetate] | 0.0 | 0.0 | 5.0 | 2.0 | 7.0 | 9.0 | 1.0 | 4.0 | 6.0 | 9.0 | 9.0 | 9.0 | 6.0 | 7.0 | 9.0 | Preemergence herbicidal rating GALAP (GALAP (Galium); [4]): 7.0; Preemergence herbicidal rating GALAP (GALAP (Galium); [5]): 6.0; Preemergence herbicidal rating ECHCG (ECHCG (Barnyardgrass); [4]): 9.0; Preemergence herbicidal rating ECHCG (ECHCG (Barnyardgrass); [5]): 9.0; Preemergence herbicidal rating GLXMAW [1, 4]: 7.0; Preemergence herbicidal rating GLXMAW [1, 5]: 9.0 |
| C=CCN1C(=O)C(CC(=O)NO)SC1=Nc1cc(-n2c(=O)cc(C(F)(F)F)n(C)c2=O)c(F)cc1Cl (centres unmarked) [Compound 161, 3-Allyl-2-{{2-chloro-5-[3,6-dihydro-3-methyl-2,6-dioxo-4-(trifluoromethyl)-1(2H)-pyrimidinyl]-4-fluorophenyl}imino}-4-oxo-5-thiazolidineacetohydroxamic acid] | 0.0 | 0.0 | 3.0 | 0.0 | 0.0 | 0.0 | 0.0 | 1.0 | 1.0 | 1.0 | 3.0 | 9.0 | 1.0 | 5.0 | 7.0 | Preemergence herbicidal rating GALAP (GALAP (Galium); 0.1250 kg/ha): 7.0; Preemergence herbicidal rating GALAP (GALAP (Galium); 0.2500 kg/ha): 7.0; Preemergence herbicidal rating GALAP (GALAP (Galium); 0.5000 kg/ha): 9.0; Preemergence herbicidal rating ECHCG (ECHCG (Barnyardgrass); 0.1250 kg/ha): 4.0; Preemergence herbicidal rating ECHCG (ECHCG (Barnyardgrass); 0.2500 kg/ha): 7.0; Preemergence herbicidal rating ECHCG (ECHCG (Barnyardgrass); 0.5000 kg/ha): 9.0; Preemergence herbicidal rating GLXMAW ([1]; 0.1250 kg/ha): 7.0; Preemergence herbicidal rating GLXMAW ([1]; 0.2500 kg/ha): 9.0; Preemergence herbicidal rating GLXMAW ([1]; 0.5000 kg/ha): 9.0; herbicidal rating IPOHE ([2]; rate 0.1250 kg/ha): 9.0; herbicidal rating CHEAL ([3]; rate 0.1250 kg/ha): 9.0 |

Reference: patent US20020137929A1, “1 - (3-heterocyclylphenyl) isothiourea, -isourea, -guanidine and -amidine herbicidal agents” (Intellectual Property Department, BASF Aktiengesellschaft, priority 1998, published 2002)
